Experimental data reported in patent EP1206476B1, “9A-AZALIDES WITH ANTIBACTERIAL ACTIVITY” (ABBOTT LABORATORIES, priority 1999, dated 2001).

How the values were obtained:
Experiment in all cases: In vitro assay of antibacterial activity (agar dilution MIC)
Format in all cases: cell-based
[1] = system: Streptococcus Pneumonia 5979; conditions: code ZZ = Streptococcus Pneumonia 5979; BHI agar, 35-37 °C, 20 to 24 hours; unit assumed
Description: (§1) Representative compounds of the present invention were assayed in vitro for antibacterial activity as follows: Twelve petri dishes containing successive aqueous dilutions of the test compound mixed with 10 mL of sterilized Brain Heart Infusion (BHI) agar (Difco 0418-01-5) were prepared. Each plate was inoculated with 1:100 (or 1:10 for slow-growing strains, such as Micrococcus and Streptococcus) dilutions of up to 32 different microorganisms, using a Steers replicator block. The inoculated plates were incubated at 35-37 °C for 20 to 24 hours. In addition, a control plate, using BHI agar containing no test compound, was prepared and incubated at the beginning and end of each test.
(§2) An additional plate containing a compound having known susceptibility patterns for the organisms being tested and belonging to the same antibiotic class as the test compound was also prepared and incubated as a further control, as well as to provide test-to-test comparability.
(§3) After incubation, each plate was visually inspected. The minimum inhibitory concentration (MIC) was defined as the lowest concentration of drug yielding no growth, a slight haze, or sparsely isolated colonies on the inoculum spot as compared to the growth control.

[2] = system: Candida albicans CCH 442; conditions: code TT = Candida albicans CCH 442; BHI agar, 35-37 °C, 20 to 24 hours; unit assumed
Description: as §1
as §2, with “comparability. Erythromycin A was used for this purpose.” for “comparability.”
as §3

[3] = system: Streptococcus bovis A-5169; conditions: code JJ = Streptococcus bovis A-5169; BHI agar, 35-37 °C, 20 to 24 hours; unit assumed
Description: as §1
as §2, with “comparability. Erythromycin A was used for this purpose.” for “comparability.”
as §3

[4] = system: Staphylococcus epidermidis 3519; conditions: code HH = Staphylococcus epidermidis 3519; BHI agar, 35-37 °C, 20 to 24 hours; unit assumed
Description: as §1
as §2, with “comparability. Erythromycin A was used for this purpose.” for “comparability.”
as §3

[5] = system: Streptococcus agalactiae CMX 508; conditions: code KK = Streptococcus agalactiae CMX 508; BHI agar, 35-37 °C, 20 to 24 hours; unit assumed
Description: as §1
as §2, with “comparability. Erythromycin A was used for this purpose.” for “comparability.”
as §3

[6] = system: Streptococcus Pneumonia GYR 1171; conditions: code YY = Streptococcus Pneumonia GYR 1171; BHI agar, 35-37 °C, 20 to 24 hours; unit assumed
Description: as §1
as §2, with “comparability. Erythromycin A was used for this purpose.” for “comparability.”
as §3

[7] = system: Streptococcus Pneumonia ATCC 6303; conditions: code XX = Streptococcus Pneumonia ATCC 6303; BHI agar, 35-37 °C, 20 to 24 hours; unit assumed
Description: as §1
as §2, with “comparability. Erythromycin A was used for this purpose.” for “comparability.”
as §3

[8] = system: Staphylococcus aureus ATCC 6538P; conditions: code AA = Staphylococcus aureus ATCC 6538P; BHI agar, 35-37 °C, 20 to 24 hours; unit assumed
Description: as §1
as §2, with “comparability. Erythromycin A was used for this purpose.” for “comparability.”
as §3

[9] = system: Staphylococcus aureus A-5278; conditions: code CC = Staphylococcus aureus A-5278; BHI agar, 35-37 °C, 20 to 24 hours; unit assumed
Description: as §1
as §2, with “comparability. Erythromycin A was used for this purpose.” for “comparability.”
as §3

[10] = system: Escherichiacoli SS; conditions: code RR = Escherichiacoli SS; BHI agar, 35-37 °C, 20 to 24 hours; unit assumed
Description: as §1
as §2, with “comparability. Erythromycin A was used for this purpose.” for “comparability.”
as §3

[11] = system: Streptococcus pyogenes PIU 2548; conditions: code NN = Streptococcus pyogenes PIU 2548; BHI agar, 35-37 °C, 20 to 24 hours; unit assumed
Description: as §1
as §2, with “comparability. Erythromycin A was used for this purpose.” for “comparability.”
as §3

[12] = system: Micrococcusluteus ATCC 4698; conditions: code PP = Micrococcusluteus ATCC 4698; BHI agar, 35-37 °C, 20 to 24 hours; unit assumed
Description: as §1
as §2, with “comparability. Erythromycin A was used for this purpose.” for “comparability.”
as §3

[13] = system: Nocardia Asteroides ATCC 99700; conditions: code VV = Nocardia Asteroides ATCC 99700; BHI agar, 35-37 °C, 20 to 24 hours; unit assumed
Description: as §1
as §2, with “comparability. Erythromycin A was used for this purpose.” for “comparability.”
as §3

[14] = system: Staphylococcus aureus NCTC 10649M; conditions: code EE = Staphylococcus aureus NCTC 10649M; BHI agar, 35-37 °C, 20 to 24 hours; unit assumed
Description: as §1
as §2, with “comparability. Erythromycin A was used for this purpose.” for “comparability.”
as §3

[15] = system: Mycobacterium smegmatis ATCC 114; conditions: code UU = Mycobacterium smegmatis ATCC 114; BHI agar, 35-37 °C, 20 to 24 hours; unit assumed
Description: as §1
as §2, with “comparability. Erythromycin A was used for this purpose.” for “comparability.”
as §3

[16] = system: Staphylococcus aureus A-5177; conditions: code BB = Staphylococcus aureus A-5177; BHI agar, 35-37 °C, 20 to 24 hours; unit assumed
Description: as §1
as §2, with “comparability. Erythromycin A was used for this purpose.” for “comparability.”
as §3

[17] = system: Haemophilislnfluenzae DILL AMP R; conditions: code WW = Haemophilislnfluenzae DILL AMP R; BHI agar, 35-37 °C, 20 to 24 hours; unit assumed
Description: as §1
as §2, with “comparability. Erythromycin A was used for this purpose.” for “comparability.”
as §3

[18] = system: Streptococcus pyogenes 930; conditions: code MM = Streptococcus pyogenes 930; BHI agar, 35-37 °C, 20 to 24 hours; unit assumed
Description: as §1
as §2, with “comparability. Erythromycin A was used for this purpose.” for “comparability.”
as §3

[19] = system: Streptococcus pyogenes EES61; conditions: code LL = Streptococcus pyogenes EES61; BHI agar, 35-37 °C, 20 to 24 hours; unit assumed
Description: as §1
as §2, with “comparability. Erythromycin A was used for this purpose.” for “comparability.”
as §3

[20] = system: Escherichiacoli JUHL; conditions: code QQ = Escherichiacoli JUHL; BHI agar, 35-37 °C, 20 to 24 hours; unit assumed
Description: as §1
as §2, with “comparability. Erythromycin A was used for this purpose.” for “comparability.”
as §3

[21] = system: Staphylococcus aureus 1775; conditions: code GG = Staphylococcus aureus 1775; BHI agar, 35-37 °C, 20 to 24 hours; unit assumed
Description: as §1
as §2, with “comparability. Erythromycin A was used for this purpose.” for “comparability.”
as §3

[22] = system: Streptococcus Pneumonia 5649; conditions: code ZA = Streptococcus Pneumonia 5649; BHI agar, 35-37 °C, 20 to 24 hours; unit assumed
Description: as §1
as §2, with “comparability. Erythromycin A was used for this purpose.” for “comparability.”
as §3

SMILES | Antibacterial Activity (MIC's) [2] | Antibacterial Activity (MIC's) [3] | Antibacterial Activity (MIC's) [4] | Antibacterial Activity (MIC's) [5] | Antibacterial Activity (MIC's) [6] | Antibacterial Activity (MIC's) [7] | Antibacterial Activity (MIC's) [8] | Antibacterial Activity (MIC's) [9] | Antibacterial Activity (MIC's) [10] | Antibacterial Activity (MIC's) [11] | Antibacterial Activity (MIC's) [12] | Antibacterial Activity (MIC's) [13] | Antibacterial Activity (MIC's) [14] | Antibacterial Activity (MIC's) [15] | Antibacterial Activity (MIC's) [16] | Antibacterial Activity (MIC's) [17] | Antibacterial Activity (MIC's) [18] | Antibacterial Activity (MIC's) [19] | Antibacterial Activity (MIC's) [20] | Antibacterial Activity (MIC's) [21] | also measured
C=CCO[C@]1(C)C[C@@H](C)CN[C@H](C)[C@@H](O)[C@](C)(O)[C@@H](CC)OC(=O)[C@H](C)[C@@H](O[C@H]2C[C@@](C)(OC)[C@@H](O)[C@H](C)O2)[C@H](C)[C@H]1O[C@@H]1O[C@H](C)C[C@H](N(C)C)[C@H]1O [Example 2] | > 100 µg/mL | 0.02 µg/mL | 0.2 µg/mL | 0.05 µg/mL | 0.06 µg/mL | 0.06 µg/mL | 0.2 µg/mL | > 100 µg/mL | 0.78 µg/mL | 6.2 µg/mL | 0.39 µg/mL | 0.1 µg/mL | 0.39 µg/mL | 6.2 µg/mL | 12.5 µg/mL | 8 µg/mL | > 100 µg/mL | 0.05 µg/mL | 50 µg/mL | > 100 µg/mL | Antibacterial Activity (MIC's) [1]: > 128 µg/mL; Antibacterial Activity (MIC's) [22]: 16 µg/mL
CC[C@H]1OC(=O)[C@H](C)[C@@H](O[C@H]2C[C@@](C)(OC)[C@@H](O)[C@H](C)O2)[C@H](C)[C@@H](O[C@@H]2O[C@H](C)C[C@H](N(C)C)[C@H]2O)[C@](C)(O)C[C@@H](C)C(=O)[C@H](C)[C@@H](O)[C@]1(C)O [Ery. A standard, Erythromycin A, reference compound] | > 100 µg/mL | 0.02 µg/mL | 0.39 µg/mL | 0.05 µg/mL | 0.06 µg/mL | 0.06 µg/mL | 0.2 µg/mL | > 100 µg/mL | 0.78 µg/mL | 6.2 µg/mL | 0.2 µg/mL | 0.1 µg/mL | 0.39 µg/mL | 3.1 µg/mL | 3.1 µg/mL | 4 µg/mL | > 100 µg/mL | 0.05 µg/mL | > 100 µg/mL | > 100 µg/mL | Antibacterial Activity (MIC's) [22]: 16 µg/mL
